Structures can show the parent of a compound that is named as a salt.
What was measured:
thromboxane synthetase = target: T1, thromboxane synthetase (Rattus norvegicus, UniProt P49430); test: inhibition of thromboxane (TX) formation in platelets (TXB2 by radioimmunoassay); format: cell-based, Okamoto-Aoki spontaneously hypertensive rats (SHR); details: drug at 10^-4 M, 10 minutes at 37° C., washed SHR platelets, TXB2 RIA
T1 construct: The platelets were isolated by centrifuging the PRP for 10 minutes; endogenous in cells; host or cells: washed platelets from arterial blood of Okamoto-Aoki spontaneously hypertensive rats (Taconic Farms, Germantown, N.Y.)
T1 sequence (P49430 1-533): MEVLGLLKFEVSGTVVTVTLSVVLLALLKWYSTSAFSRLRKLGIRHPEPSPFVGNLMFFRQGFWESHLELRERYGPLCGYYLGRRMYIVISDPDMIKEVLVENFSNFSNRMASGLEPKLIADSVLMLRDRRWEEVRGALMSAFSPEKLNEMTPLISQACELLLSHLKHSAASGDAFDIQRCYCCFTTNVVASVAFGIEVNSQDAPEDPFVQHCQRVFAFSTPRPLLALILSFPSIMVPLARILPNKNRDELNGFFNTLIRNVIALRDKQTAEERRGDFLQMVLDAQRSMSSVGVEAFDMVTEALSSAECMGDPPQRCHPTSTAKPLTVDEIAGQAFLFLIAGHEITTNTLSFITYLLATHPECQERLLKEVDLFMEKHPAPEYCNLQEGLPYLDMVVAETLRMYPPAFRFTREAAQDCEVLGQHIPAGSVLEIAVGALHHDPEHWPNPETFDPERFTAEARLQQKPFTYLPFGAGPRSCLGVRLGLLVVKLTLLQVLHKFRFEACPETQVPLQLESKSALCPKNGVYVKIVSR
Experimental: From Okamoto-Aoki spontaneously hypertensive rats (SHR) (Taconic Farms, Germantown, N.Y.) between 19 and 24 weeks in age, under urethan anesthesia, […] of arterial blood was collected in one ml of 3.2% sodium citrate a polystyrene tube. The blood was diluted with 3 ml cold saline and centrifuged at room temperature for 15 minutes at 460×g. The platelet rich plasma (PRP) was separated. The platelets were isolated by centrifuging the PRP for 10 minutes at 1060×g nd were washed in 4 ml cold oxygenated Krebs phosphate buffer, pH 7.4. The chilled platelets recovered from centrifuging at 800×g for 10 minutes were resuspended in oxygenated Krebs phosphate buffer and diluted to contain 4.5-6.0×10^4 platelets/μl. The inhibition of thromboxane (TX) formation was studied by determining the concentration of thromboxane B2 (TXB2), the stable hydrolysis product of TXA2. Assay samples, prepared on ice, contained 200 μl platelet suspension, 50 μl saline, and 50 μl vehicle or drug under study at a concentration of 10^-4 M (with OKY-1581, UK-3724801, 1-benzylimidazole, and/or indometha standards). The samples were incubated for 10 minutes at 37° C. in a metabolic shaker. The reaction was terminated by immersing the tubes in an ice bath and adding 50 μl of 0.5M citric acid. The samples were centrifuged for 10 minutes in a refrigerated centrifuge and the supernatants thus obtained were decanted and stored at -20° C. The TXB2 content for each sample was determined by a direct radioimmunoassay (RIA) utilizing a TXB2 specific RIA kit purchased from New England Nuclear, Boston, Mass. and results expressed as pg TXB2 formed minute^-1 sample^-1, from which the percent inhibition of TXB2 formation was calculated.

[1] = test system: spontaneously hypertensive rats; test: hypotensive activity in spontaneously hypertensive rats (mean arterial blood pressure); format: in vivo, spontaneously hypertensive rats of the Okamoto strain; details: by gavage, 100 mg/kg or less, two doses 24 hours apart, measured 28 hours after the initial dose; starting average MABP 160±1.5 mm; number of rats in parentheses
Experimental: The novel compounds of the present invention are also active hypotensive agents and were tested for hypotensive activity by the method of P. S. Chan and D. Poorvin, Clinical and Experimental Hypertension, 1 (6), 817-830 (1979). Male, 16 week old, spontaneously hypertensive rats of the Okamoto strain, from Taconic Farms, Germantown, N.Y. having an average mean arterial blood pressure of 160±1.5 mm of mercury were used in the test. One to 3 rats were used per test compound. The rats were dosed by gavage with a test compound, suspended in 2% pre-boiled starch at a concentration of 50 mg/ml, at a dose of 100 mg/kg of body weight or less, with 0.9% sodium chloride loading at a dose of 25 ml/kg of body weight. A second identical dose of the test compound, without sodium chloride loading was given 24 hours later. At 28 hours after the initial dose, the mean arterial blood pressure (MABP) was measured by the method of Chan and Poorvir vide supra. The procedure was repeated in a second and third rat when necessary as specified in the referenced method.

[2] = test system: coronary arteries of guinea pigs and rabbits; details: cited from earlier work
ischemic myocardium = details: canines; cited from earlier work

inhibition at 100 µM (thromboxane synthetase) [%] | Structure (SMILES) | MABP/mm Hg (no. of rats) [1] [mm Hg] | further results
96 | O=C1c2cccc3c(Cl)ccc(c23)C(=O)N1CCCCn1ccnc1 [6-Chloro-2-[4-(1H-imidazol-1-yl)butyl]-1H-benz[de]isoquinoline-1,3(2H)-dione monohydrochloride] | – | –
96 | O=C1c2cccc3cccc(c23)C(=O)N1CCCCn1ccnc1 [2-[4-(1H-Imidazol-1-yl)butyl]-1H-benz-[de]isoquinoline-1,3(2H)-dione] | 106 | –
94 | O=C1c2cccc3cc([N+](=O)[O-])cc(c23)C(=O)N1CCCCc1cccnc1 [5-nitro-2-[4-(3-pyridinyl)butyl]-1 --H--benz[de]isoquinoline-1,3(2 --H)--dione] | – | –
100 | CC(CCN1C(=O)c2cccc3cc([N+](=O)[O-])cc(c23)C1=O)n1ccnc1 (stereo not shown) [2-[3-(1 --H--imidazol-1-yl)butyl]-5-nitro-1 --H--benz[de]isoquinoline-1,3(2 --H)--dione] | – | –
94 | O=C1c2cccc3cc([N+](=O)[O-])cc(c23)C(=O)N1CCCn1cncn1 [5-Nitro-2-[3-(1 --H--1,2,4-triazol-1-yl)propyl]-1 --H--benz[de]isoquinoline-1,3(2 --H)--dione] | 127 | –
98 | Cc1cn(CCCN2C(=O)c3cccc4cccc(c34)C2=O)cn1 [2-[3-(4-methyl-1 --H--imidazol-1-yl)-propyl]-1 --H--benz[de]isoquinoline-1,3(2 --H)--dione] | – | –
89 | O=C1c2cccc3cccc(c23)C(=O)N1CCCn1ccnc1 [2-[3(1 --H--imidazol-1-yl)propyl]-1 --H--benz[de]isoquinoline-1,3(2 --H)--dione] | 103 | –
97 | O=C1c2cccc3cc([N+](=O)[O-])cc(c23)C(=O)N1CCCCn1ccnc1 [2-[4-(1H-Imidazol-1-yl)butyl]-5-nitro-1H-benz[de]isoquinoline-1,3(2H)-dione] | 123 | –
100 | O=C1c2cccc3cccc(c23)C(=O)N1CCCCCn1ccnc1 [2-[5-(1 --H--imidazol-1-yl)pentyl)-1 --H--benz[de]isoquinoline-1,3(2 --H)--dione] | – | –
98 | O=C1c2cccc3cccc(c23)C(=O)N1CCCCc1cccnc1 [2-[4-(3-pyridinyl)butyl]-1 --H--benz[de]isoquinoline-1,3(2 --H)--dione] | 137 | –
97 | O=C1c2cccc3cccc(c23)C(=O)N1C(CCn1ccnc1)c1ccccc1 (stereo not shown) [2-[3-(1 --H--imidazol-1-yl)-1-phenyl-propyl]-1 --H--benz[de]isoquinoline-1,3(2 -- H)--dione] | – | –
98 | O=C1c2cccc3cccc(c23)C(=O)N1CCCCCCCCn1ccnc1 [2-[8-(1H-Imidazol-1-yl)octyl]-1H-benz[de]isoquinoline-1,3(2H)-dione] | – | –
96 | O=C1c2cccc3cccc(c23)C(=O)N1CCCn1cncn1 [2-[3-(1 --H--1,2,4-triazol-1-yl)-propyl]-1 --H--benz[de]isoquinoline-1,3(2 --H)--dione] | – | –
100 | O=C1c2cccc3cc([N+](=O)[O-])cc(c23)C(=O)N1CCCn1ccnc1 [2-[3-(1 --H--imidazol-1-yl)propyl]-5-nitro-1 --H--benz[de]isoquinoline-1,3(2 --H)--dione] | 97 | –
98 | O=C1c2cccc3cc([N+](=O)[O-])cc(c23)C(=O)N1CCCCCn1ccnc1 [2-[5-(1 --H--imidazol-1-yl)pentyl)-5-nitro-1 --H--benz[de]isoquinoline-1,3(2 --H)--dione] | – | –
– | CCCCC[C@H](O)/C=C/[C@H]1O[C@H]2C[C@H](O2)[C@@H]1C/C=C\CCCC(=O)O [TXA2, thromboxane A2] | – | effect of injection into coronary arteries [2]: causes myocardial ischemia and subendocardial necrosis
94 | O=C1c2cccc3cc([N+](=O)[O-])cc(c23)C(=O)N1CCc1cccnc1 [5-Nitro-2-[2-(3-pyridinyl)ethyl]-1 --H--benz[de]isoquinoline-1,3(2 --H)--dione] | – | –
97 | CC(CCN1C(=O)c2cccc3cccc(c23)C1=O)n1ccnc1 (stereo not shown) [2-[3-(1 --H--imidazol-1-yl)butyl]-1 --H--benz[de]isoquinoline-1,3(2 --H)--dione] | 120 | –
96 | Nc1ccc2c3c(cccc13)C(=O)N(CCCCn1ccnc1)C2=O [6-Amino-2-[4-(1 --H--imidazol-1-yl)butyl]-1 --H--benz[de]isoquinoline-1,3-(2 --H)--dione dihydrochloride] | 115 | –
94 | O=C1c2cccc3c(Cl)ccc(c23)C(=O)N1CCCCCn1ccnc1 [6-Chloro-2-[5-(1 --H--imidazol-1-yl)pentyl]-1 --H--benz[de]isoquinoline-1,3-(2 --H)--dione] | – | –
– | CCCCC[C@H](O)/C=C/[C@@H]1[C@H]2C/C(=C/CCCC(=O)O)O[C@H]2C[C@H]1O [PGI2, Prostacyclin] | – | effects on ischemic myocardium (ischemic myocardium): beneficial effects
95 | O=C1c2cccc3c(Cl)ccc(c23)C(=O)N1CCCn1ccnc1 [6-Chloro-2-[3(1 --H--imidazol-1-yl)-propyl]-1 --H--benz[de]isoquinoline-1,3(2 --H)--dione monohydrochloride] | – | –
99 | CC(CN1C(=O)c2cccc3cccc(c23)C1=O)Cn1ccnc1 (stereo not shown) [2-[3-(1 --H--imidazol-1-yl)-2-methyl-propyl]-1 --H--benz[de]isoquinoline-1,3(2 --H)--dione] | 134 | –
100 | CC(CN1C(=O)c2cccc3cc([N+](=O)[O-])cc(c23)C1=O)Cn1ccnc1 (stereo not shown) [2-[3-(1 --H--imidazol-1-yl)-2-methyl-propyl]-5-nitro-1 --H--benz[de]-isoquinoline-1,3(2 --H)--dione] | – | –
89 | O=C1c2cccc3cc([N+](=O)[O-])cc(c23)C(=O)N1CCCn1ccnc1-c1ccccc1 [5-Nitro-2-[3-(2-phenyl-1 --H--imidazol-1-yl)propyl]-1 --H-- benz[de]-isoquinoline-1,3(2 --H)--dione] | – | –

Reference: US4782064A, “2-heteroaryl-alkyl-1H-benz[de]-isoquinoline-1,3(2H)-diones” (American Cyanamid Co., priority 1986, dated 1988)
